ChEMBL document CHEMBL5505992, “Novel membrane-targeting isoxanthohumol-amine conjugates for combating methicillin-resistant Staphylococcus aureus (MRSA) infections” (Eur J Med Chem, 2024)
The source made the active and inactive calls. The rule behind the calls is not given here.

Legend:
[1] = Toxicity in Kunming mouse assessed as adverse effect at 5 to 10 mg/kg, sc measured after 24 hrs; format: organism-based; conditions: in vivo, dose 5-10 mg/kg
[2] = system: Cell membrane; experiment: Induction of cell membrane permeability in methicillin-resistant Staphylococcus aureus clinical isolate MRSA-16 assessed as dead cells (Q1 region) at 16 ug/ml incubated for 2 hrs by SYTO 9 and PI staining based flow cytometry analysis (reference value: 0.00%); format: cell membranes; conditions: dose 16.0 µg/ml
[3] = system: Staphylococcus aureus; experiment: Antibacterial activity against methicillin-resistant Staphylococcus aureus in presence of phosphatidylglycerol; format: functional, organism-based
[4] = system: Staphylococcus aureus; experiment: Antibacterial activity against methicillin-resistant Staphylococcus aureus clinical isolate MRSA-18 measured after 16 to 18 hrs by CLSI method; format: functional; conditions: time 16-18 hrs
[5] = system: Staphylococcus aureus; experiment: Antibacterial activity against methicillin-resistant Staphylococcus aureus infected in Kunming mouse skin infection model assessed as effect on skin abscesses in subcutaneous tissue at 8 mg/kg,sc measured after 24 hrs; format: functional, organism-based
[6] = system: Cell membrane; experiment: Induction of cell membrane permeability in methicillin-resistant Staphylococcus aureus clinical isolate MRSA-16 assessed as decrease in intact cells (Q3 region) at 4 ug/ml incubated for 2 hrs by SYTO 9 and PI staining based flow cytometry analysis (reference value: 99.07%); format: cell membranes; parameters: scale not given: the % may be the effect or the level left; conditions: dose 4.0 µg/ml
[7] = Toxicity in Kunming mouse assessed as histopathological abnormalities in lung at 10 mg/kg, sc measured after 24 hrs by H and E staining based analysis; format: organism-based; conditions: in vivo
[8] = system: Staphylococcus aureus; experiment: Antibacterial activity against methicillin-resistant Staphylococcus aureus infected in Kunming mouse skin infection model assessed as effect on skin abscesses at 4 mg/kg,sc measured after 24 hrs; format: functional, organism-based
[9] = system: Staphylococcus aureus; experiment: Antibacterial activity against methicillin-resistant Staphylococcus aureus clinical isolate MRSA-11 measured after 16 to 18 hrs by CLSI method; format: functional; conditions: time 16-18 hrs
[10] = Toxicity in Kunming mouse assessed as effect on skin at 10 mg/kg, sc measured after 24 hrs by H and E staining based analysis; format: organism-based; conditions: in vivo
[11] = system: Staphylococcus aureus; experiment: Antibacterial activity against methicillin-resistant Staphylococcus aureus infected in Kunming mouse skin infection model assessed as decrease in bacterial load at 4 mg/kg,sc measured after 24 hrs; format: functional
[12] = system: Staphylococcus aureus; experiment: Antibacterial activity against methicillin-resistant Staphylococcus aureus infected in Kunming mouse skin infection model assessed as appearance of small number of infiltrated inflammatory cells in subcutaneous tissue at 8 mg/kg,sc measured after 24 hrs; format: functional, organism-based
[13] = system: Cell membrane; experiment: Induction of cell membrane permeability in methicillin-resistant Staphylococcus aureus clinical isolate MRSA-16 assessed as decrease in intact cells (Q3 region) at 8 ug/ml incubated for 2 hrs by SYTO 9 and PI staining based flow cytometry analysis (reference value: 99.07%); format: cell membranes; parameters: scale not given: the % may be the effect or the level left; conditions: dose 8.0 µg/ml
[14] = Toxicity in Kunming mouse assessed as effect on heart at 4 to 8 mg/kg, sc measured after 24 hrs by H and E staining based analysis; format: organism-based; conditions: in vivo, dose 4-8 mg/kg
[15] = system: Staphylococcus aureus; experiment: Antibacterial activity against methicillin-resistant Staphylococcus aureus infected in Kunming mouse skin infection model assessed as decrease in bacterial load at 8 mg/kg,sc measured after 24 hrs relative to control; format: functional; parameters: scale not given: the % may be the effect or the level left
[16] = system: Staphylococcus aureus; experiment: Antibacterial activity against methicillin-resistant Staphylococcus aureus infected in Kunming mouse skin infection model assessed as reduction in number of bacterial cells at 4 to 8 mg/kg,sc measured after 24 hrs; format: functional, organism-based; conditions: dose 4-8 mg/kg
[17] = system: Cell membrane; experiment: Induction of cell membrane permeability in methicillin-resistant Staphylococcus aureus clinical isolate MRSA-16 assessed as dead cells (Q1 region) at 64 ug/ml incubated for 2 hrs by SYTO 9 and PI staining based flow cytometry analysis (reference value: 0.00%); format: cell membranes; conditions: dose 64.0 µg/ml
[18] = system: Cell membrane; experiment: Disruption of cell membrane integrity in methicillin-resistant Staphylococcus aureus clinical isolate MRSA-16 assessed as increase in red fluorescence at 2 ug/ml incubated for 4 hrs by DAPI and PI staining based confocal microscopy analysis; format: cell membranes; conditions: dose 2.0 µg/ml
[19] = system: Staphylococcus aureus; experiment: Antibacterial activity against methicillin-resistant Staphylococcus aureus clinical isolate MRSA-14 measured after 16 to 18 hrs by CLSI method; format: functional; conditions: time 16-18 hrs
[20] = Toxicity in Kunming mouse assessed as effect on lung at 10 mg/kg, sc measured after 24 hrs by H and E staining based analysis; format: organism-based; conditions: in vivo
[21] = system: Staphylococcus aureus; experiment: Antibacterial activity against methicillin-resistant Staphylococcus aureus in presence of peptidoglycan; format: functional
[22] = Toxicity in Kunming mouse assessed as histopathological abnormalities in heart at 10 mg/kg, sc measured after 24 hrs by H and E staining based analysis; format: organism-based; conditions: in vivo

SMILES: CCCC[N+](C)(CCCC)CCCCCOc1ccc(C2CC(=O)c3c(OC)cc(OCCCCC[N+](C)(CCCC)CCCC)c(CC=C(C)C)c3O2)cc1.[I-].[I-] (configuration not stated)
- Activity [1]: Non-Toxic
- Activity [2]: 28.4%
- Activity [3]: Active
- MIC [4]: 0.5 µg/mL
- Activity [5]: inactive
- Activity [6]: 60.8%
- Activity [7]: Non-Toxic
- Activity [8]: Active
- MIC [9]: 0.5 µg/mL
- Activity [10]: Non-Toxic
- Activity [11]: 3.2 log10CFU/g
- Activity [12]: Active
- Activity [13]: 39.7%
- Activity [14]: Non-Toxic
- Activity [15]: 99.99%
- Activity [16]: Active
- Activity [17]: 100%
- Activity [18]: Active
- MIC [19]: 0.25 µg/mL
- Activity [20]: Non-Toxic
- MIC [21]: 32 µg/mL
- Activity [22]: Non-Toxic
